Read-outs that look alike come from different tables or passages of the source. One block for each compound: values may come before it. Starred links: 1 amine or outer side, 2 acyl side, 3 side chain; linkers in the order of their positions; H or OH if unused. Positions of bridges follow the written chain, without caps; N, C: chain ends. Residues, ends and D or L forms follow the SMILES beside them. Chains are numbered I, II in the order given. X1 = C[C@@H](CNC(=O)N[C@@H](C)CNC(=O)[*:2])NC(=O)NC[C@H](C)N[*:1]; X5 = C[C@@H](CNC(=O)N[C@@H](C)CNC(=O)[*:1])NC(=O)NC[C@H](C)N[*:2]
Assays:
[1] = target: T1, mouse GLP-1 receptor (Mus musculus, UniProt O35659); settings: for Potency (%), percentage of potency compare to GLP-1-G^2: cAMP production, from EC50
T1 sequence (O35659 22-463): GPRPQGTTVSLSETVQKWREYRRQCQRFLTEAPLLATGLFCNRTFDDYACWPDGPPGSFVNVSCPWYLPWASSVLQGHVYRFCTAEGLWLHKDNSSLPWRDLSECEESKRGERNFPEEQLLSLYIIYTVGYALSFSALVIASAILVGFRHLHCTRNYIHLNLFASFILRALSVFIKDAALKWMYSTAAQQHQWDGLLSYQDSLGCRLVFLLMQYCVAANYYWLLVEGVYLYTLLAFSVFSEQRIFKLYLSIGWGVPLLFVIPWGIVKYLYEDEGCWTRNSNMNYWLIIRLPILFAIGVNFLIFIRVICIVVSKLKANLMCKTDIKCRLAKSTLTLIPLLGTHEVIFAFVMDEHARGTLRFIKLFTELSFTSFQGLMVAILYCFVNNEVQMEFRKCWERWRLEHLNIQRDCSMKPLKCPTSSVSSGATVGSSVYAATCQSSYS

[2] = target: T1, mouse GLP-1 receptor; test: cell-based; settings: for Emax: 14: experiment 1
[3] = read-out: Top (best-fit value), variable slope four-parameter fit, unconstrained

SMILES: CC[C@H](C)[C@H](NC(=O)[C@H](Cc1ccccc1)NC(=O)[C@H](CCC(=O)O)NC(=O)[C@H](CCCCN)NC(=O)[C@H](C)NC(=O)[C@H](C)NC(=O)[C@H](CCC(N)=O)NC(=O)CNC(=O)[C@H](CCC(=O)O)NC(=O)[C@H](CC(C)C)NC(=O)[C@H](Cc1ccc(O)cc1)NC(=O)[C@H](CO)NC(=O)[C@H](CO)NC(=O)[C@@H](NC(=O)[C@H](CC(=O)O)NC(=O)[C@H](CO)NC(=O)[C@@H](NC(=O)[C@H](Cc1ccccc1)NC(=O)[C@@H](NC(=O)CNC(=O)[C@H](CCC(=O)O)NC(=O)CNC(=O)[C@@H](N)Cc1c[nH]cn1)[C@@H](C)O)[C@@H](C)O)C(C)C)C(=O)N[C@@H](C)CNC(=O)N[C@@H](C)CNC(=O)N[C@@H](C)CNC(=O)N[C@@H](CCCCN)C(=O)NCC(=O)N[C@@H](CCCNC(=N)N)C(=O)NCC(N)=O [compound 18, GG2[A^uA^uA^u]^24-27]
Potency (%), percentage of potency compare to GLP-1-G^2 [1]: < 0.01%
EC50 [2]: > 10000 nM
Emax [2, 3]: 198%

SMILES: CC[C@H](C)[C@H](NC(=O)[C@H](Cc1ccccc1)NC(=O)[C@H](CCC(=O)O)NC(=O)[C@H](CCCCN)NC(=O)[C@H](C)NC(=O)[C@H](C)NC(=O)[C@H](CCC(N)=O)NC(=O)NC[C@H](C)NC(=O)NC[C@H](C)NC(=O)NC[C@H](C)NC(=O)[C@H](CO)NC(=O)[C@H](CO)NC(=O)[C@@H](NC(=O)[C@H](CC(=O)O)NC(=O)[C@H](CO)NC(=O)[C@@H](NC(=O)[C@H](Cc1ccccc1)NC(=O)[C@@H](NC(=O)CNC(=O)[C@H](CCC(=O)O)NC(=O)CNC(=O)[C@@H](N)Cc1c[nH]cn1)[C@@H](C)O)[C@@H](C)O)C(C)C)C(=O)N[C@@H](C)C(=O)N[C@@H](Cc1c[nH]c2ccccc12)C(=O)N[C@@H](CC(C)C)C(=O)N[C@H](C(=O)N[C@@H](CCCCN)C(=O)NCC(=O)N[C@@H](CCCNC(=N)N)C(=O)NCC(N)=O)C(C)C [compound 7, GG2[A^uA^uA^u]^13-16] (I: QAAKEFIAWLVKGRG-NH2 / II: H-HGEGTFTSDVSS; linker I:N-II:C via X5)
EC50 [2]: > 10000 nM
Emax [2, 3]: ~208%

SMILES: CC[C@H](C)[C@H](NC(=O)[C@H](Cc1ccccc1)NC(=O)[C@H](CCC(=O)O)NC(=O)[C@H](CCCCN)NC(=O)[C@H](C)NC(=O)[C@H](C)NC(=O)[C@H](CCC(N)=O)NC(=O)CNC(=O)[C@H](CCC(=O)O)NC(=O)NC[C@H](C)NC(=O)NC[C@H](C)NC(=O)NC[C@H](C)NC(=O)[C@@H](NC(=O)[C@H](CC(=O)O)NC(=O)[C@H](CO)NC(=O)[C@@H](NC(=O)[C@H](Cc1ccccc1)NC(=O)[C@@H](NC(=O)CNC(=O)[C@H](CCC(=O)O)NC(=O)CNC(=O)[C@@H](N)Cc1c[nH]cn1)[C@@H](C)O)[C@@H](C)O)C(C)C)C(=O)N[C@@H](C)C(=O)N[C@@H](Cc1c[nH]c2ccccc12)C(=O)N[C@@H](CC(C)C)C(=O)N[C@H](C(=O)N[C@@H](CCCCN)C(=O)NCC(=O)N[C@@H](CCCNC(=N)N)C(=O)NCC(N)=O)C(C)C [compound 4, GG2[A^uA^uA^u]^11-14]
LogEC50 (best-fit value) [1]: -7.014
Potency (%), percentage of potency compare to GLP-1-G^2 [1]: 0.2%
EC50 [2]: 97 nM
Emax [2, 3]: 81.8%

SMILES: CC[C@H](C)[C@H](NC(=O)NC[C@H](C)NC(=O)NC[C@H](C)NC(=O)NC[C@H](C)NC(=O)[C@H](C)NC(=O)[C@H](CCC(N)=O)NC(=O)CNC(=O)[C@H](CCC(=O)O)NC(=O)[C@H](CC(C)C)NC(=O)[C@H](Cc1ccc(O)cc1)NC(=O)[C@H](CO)NC(=O)[C@H](CO)NC(=O)[C@@H](NC(=O)[C@H](CC(=O)O)NC(=O)[C@H](CO)NC(=O)[C@@H](NC(=O)[C@H](Cc1ccccc1)NC(=O)[C@@H](NC(=O)CNC(=O)[C@H](CCC(=O)O)NC(=O)CNC(=O)[C@@H](N)Cc1c[nH]cn1)[C@@H](C)O)[C@@H](C)O)C(C)C)C(=O)N[C@@H](C)C(=O)N[C@@H](Cc1c[nH]c2ccccc12)C(=O)N[C@@H](CC(C)C)C(=O)N[C@H](C(=O)N[C@@H](CCCCN)C(=O)NCC(=O)N[C@@H](CCCNC(=N)N)C(=O)NCC(N)=O)C(C)C [compound 15, GG2[A^uA^uA^u]^19-22] (I: H-HGEGTFTSDVSSYLEGQA / II: IAWLVKGRG-NH2; linker I:C-II:N via X1)
EC50 [2]: > 10000 nM
Emax ([2]; read-out: Top (best-fit value), fit with BOTTOM = 0%): ~538%
Emax [2, 3]: 92.7%

SMILES: CC[C@H](C)[C@H](NC(=O)[C@H](Cc1ccccc1)NC(=O)[C@H](CCC(=O)O)NC(=O)[C@H](CCCCN)NC(=O)[C@H](C)NC(=O)[C@H](C)NC(=O)[C@H](CCC(N)=O)NC(=O)CNC(=O)[C@H](CCC(=O)O)NC(=O)[C@H](CC(C)C)NC(=O)NC[C@H](C)NC(=O)NC[C@H](C)NC(=O)NC[C@H](C)NC(=O)[C@H](CC(=O)O)NC(=O)[C@H](CO)NC(=O)[C@@H](NC(=O)[C@H](Cc1ccccc1)NC(=O)[C@@H](NC(=O)CNC(=O)[C@H](CCC(=O)O)NC(=O)CNC(=O)[C@@H](N)Cc1c[nH]cn1)[C@@H](C)O)[C@@H](C)O)C(=O)N[C@@H](C)C(=O)N[C@@H](Cc1c[nH]c2ccccc12)C(=O)N[C@@H](CC(C)C)C(=O)N[C@H](C(=O)N[C@@H](CCCCN)C(=O)NCC(=O)N[C@@H](CCCNC(=N)N)C(=O)NCC(N)=O)C(C)C [compound 3, GG2[A^uA^uA^u]^10-13]
LogEC50 (best-fit value) [1]: -6.187
Potency (%), percentage of potency compare to GLP-1-G^2 [1]: 0.04%
EC50 [2]: 650 nM
Emax [2, 3]: 91.6%

Continued, values first:

LogEC50 (best-fit value) [1]: -6.452
Potency (%), percentage of potency compare to GLP-1-G^2 [1]: 0.07%
EC50 [2]: 353 nM
Emax [2, 3]: 73.4%
SMILES: CC[C@H](C)[C@H](NC(=O)[C@H](Cc1ccccc1)NC(=O)[C@H](CCC(=O)O)NC(=O)[C@H](CCCCN)NC(=O)[C@H](C)NC(=O)[C@H](C)NC(=O)NC[C@H](C)NC(=O)NC[C@H](C)NC(=O)NC[C@H](C)NC(=O)[C@H](Cc1ccc(O)cc1)NC(=O)[C@H](CO)NC(=O)[C@H](CO)NC(=O)[C@@H](NC(=O)[C@H](CC(=O)O)NC(=O)[C@H](CO)NC(=O)[C@@H](NC(=O)[C@H](Cc1ccccc1)NC(=O)[C@@H](NC(=O)CNC(=O)[C@H](CCC(=O)O)NC(=O)CNC(=O)[C@@H](N)Cc1c[nH]cn1)[C@@H](C)O)[C@@H](C)O)C(C)C)C(=O)N[C@@H](C)C(=O)N[C@@H](Cc1c[nH]c2ccccc12)C(=O)N[C@@H](CC(C)C)C(=O)N[C@H](C(=O)N[C@@H](CCCCN)C(=O)NCC(=O)N[C@@H](CCCNC(=N)N)C(=O)NCC(N)=O)C(C)C [compound 8, GG2[A^uA^uA^u]^14-17] (I: AAKEFIAWLVKGRG-NH2 / II: H-HGEGTFTSDVSSY; linker I:N-II:C via X5)

LogEC50 (best-fit value) [1]: -5.795
EC50 [2]: 1600 nM
Emax [2, 3]: 57.7%
SMILES: CC[C@H](C)[C@H](NC(=O)[C@H](Cc1ccccc1)NC(=O)[C@H](CCC(=O)O)NC(=O)NC[C@H](C)NC(=O)NC[C@H](C)NC(=O)NC[C@H](C)NC(=O)CNC(=O)[C@H](CCC(=O)O)NC(=O)[C@H](CC(C)C)NC(=O)[C@H](Cc1ccc(O)cc1)NC(=O)[C@H](CO)NC(=O)[C@H](CO)NC(=O)[C@@H](NC(=O)[C@H](CC(=O)O)NC(=O)[C@H](CO)NC(=O)[C@@H](NC(=O)[C@H](Cc1ccccc1)NC(=O)[C@@H](NC(=O)CNC(=O)[C@H](CCC(=O)O)NC(=O)CNC(=O)[C@@H](N)Cc1c[nH]cn1)[C@@H](C)O)[C@@H](C)O)C(C)C)C(=O)N[C@@H](C)C(=O)N[C@@H](Cc1c[nH]c2ccccc12)C(=O)N[C@@H](CC(C)C)C(=O)N[C@H](C(=O)N[C@@H](CCCCN)C(=O)NCC(=O)N[C@@H](CCCNC(=N)N)C(=O)NCC(N)=O)C(C)C [compound 13, GG2[A^uA^uA^u]^17-20]

LogEC50 (best-fit value) [1]: -6.91
Potency (%), percentage of potency compare to GLP-1-G^2 [1]: 0.2%
EC50 [2]: 123 nM
Emax [2, 3]: 61.5%
SMILES: CC[C@H](C)[C@H](NC(=O)[C@H](Cc1ccccc1)NC(=O)[C@H](CCC(=O)O)NC(=O)[C@H](CCCCN)NC(=O)[C@H](C)NC(=O)NC[C@H](C)NC(=O)NC[C@H](C)NC(=O)NC[C@H](C)NC(=O)[C@H](CC(C)C)NC(=O)[C@H](Cc1ccc(O)cc1)NC(=O)[C@H](CO)NC(=O)[C@H](CO)NC(=O)[C@@H](NC(=O)[C@H](CC(=O)O)NC(=O)[C@H](CO)NC(=O)[C@@H](NC(=O)[C@H](Cc1ccccc1)NC(=O)[C@@H](NC(=O)CNC(=O)[C@H](CCC(=O)O)NC(=O)CNC(=O)[C@@H](N)Cc1c[nH]cn1)[C@@H](C)O)[C@@H](C)O)C(C)C)C(=O)N[C@@H](C)C(=O)N[C@@H](Cc1c[nH]c2ccccc12)C(=O)N[C@@H](CC(C)C)C(=O)N[C@H](C(=O)N[C@@H](CCCCN)C(=O)NCC(=O)N[C@@H](CCCNC(=N)N)C(=O)NCC(N)=O)C(C)C [compound 10, GG2[A^uA^uA^u]^15-18] (I: H-HGEGTFTSDVSSYL / II: AKEFIAWLVKGRG-NH2; linker I:C-II:N via X1)

LogEC50 (best-fit value) [1]: -6.619
Potency (%), percentage of potency compare to GLP-1-G^2 [1]: 0.1%
EC50 [2]: 240 nM
Emax [2, 3]: 65%
SMILES: CC[C@H](C)[C@H](NC(=O)[C@H](Cc1ccccc1)NC(=O)[C@H](CCC(=O)O)NC(=O)[C@H](CCCCN)NC(=O)NC[C@H](C)NC(=O)NC[C@H](C)NC(=O)NC[C@H](C)NC(=O)[C@H](CCC(=O)O)NC(=O)[C@H](CC(C)C)NC(=O)[C@H](Cc1ccc(O)cc1)NC(=O)[C@H](CO)NC(=O)[C@H](CO)NC(=O)[C@@H](NC(=O)[C@H](CC(=O)O)NC(=O)[C@H](CO)NC(=O)[C@@H](NC(=O)[C@H](Cc1ccccc1)NC(=O)[C@@H](NC(=O)CNC(=O)[C@H](CCC(=O)O)NC(=O)CNC(=O)[C@@H](N)Cc1c[nH]cn1)[C@@H](C)O)[C@@H](C)O)C(C)C)C(=O)N[C@@H](C)C(=O)N[C@@H](Cc1c[nH]c2ccccc12)C(=O)N[C@@H](CC(C)C)C(=O)N[C@H](C(=O)N[C@@H](CCCCN)C(=O)NCC(=O)N[C@@H](CCCNC(=N)N)C(=O)NCC(N)=O)C(C)C [compound 12, GG2[A^uA^uA^u]^16-19]
